What was measured:
[1] = Terminal half life in human at 60 mg, po by LC-MS/MS method; format: ADME, organism-based; conditions: in vivo, read-out: beta t1/2 (converted)
Cytochrome P450 2D6 = Cytochrome P450 2D6 (Homo sapiens, UniProt P10635); test: Competitive inhibition of CYP2D6 (unknown origin) using dextromethorphan substrate; format: ADME
[2] = Oral bioavailability in human; format: ADME, organism-based; conditions: in vivo
[3] = Terminal half life in orally dosed human by LC-MS/MS method; format: ADME, organism-based; conditions: in vivo, po, read-out: beta t1/2

Cytochrome P450 2D6, sequence (P10635 whole entry): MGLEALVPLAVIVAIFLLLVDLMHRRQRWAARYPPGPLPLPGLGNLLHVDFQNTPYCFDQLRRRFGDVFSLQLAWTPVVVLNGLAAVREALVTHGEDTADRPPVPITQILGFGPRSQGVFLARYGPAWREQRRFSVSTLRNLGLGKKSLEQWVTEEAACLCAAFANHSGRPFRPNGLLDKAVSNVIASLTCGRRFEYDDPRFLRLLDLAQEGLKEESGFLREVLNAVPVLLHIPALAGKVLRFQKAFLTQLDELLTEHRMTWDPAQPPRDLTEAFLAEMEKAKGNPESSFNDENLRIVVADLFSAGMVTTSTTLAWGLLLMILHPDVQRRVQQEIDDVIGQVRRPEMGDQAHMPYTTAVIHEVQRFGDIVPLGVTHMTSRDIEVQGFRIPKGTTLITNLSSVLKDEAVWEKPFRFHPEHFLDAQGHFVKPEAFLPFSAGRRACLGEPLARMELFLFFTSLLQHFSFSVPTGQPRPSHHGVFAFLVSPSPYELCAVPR

Row | half-life [1] | bioavailability [2] | half-life [3] | SMILES | Ki (Cytochrome P450 2D6)
1 | 1200 min | – | – | CC(C)=CCc1c(O)cc(O)c2c1OC(c1ccc(O)cc1)CC2=O (configuration not stated) [SOPHORAFLAVANONE B] | –
2 | – | – | – | COc1ccc2c(c1OC)CN(C)CCc1cc3c(cc1C(=O)C2)OCO3 [ALLOCRYPTOPINE] | 122 nM
3 | – | < 0.5% | < 120 min | COc1cc([C@@H]2Oc3cc([C@H]4Oc5cc(O)cc(O)c5C(=O)[C@@H]4O)ccc3O[C@H]2CO)ccc1O [SILYBIN B] | –
4 | – | < 0.5% | < 120 min | COc1cc([C@H]2Oc3cc([C@H]4Oc5cc(O)cc(O)c5C(=O)[C@@H]4O)ccc3O[C@@H]2CO)ccc1O [SILYBIN A] | –
5 | 1200 min | – | – | COc1cc(O)c(CC=C(C)C)c(O)c1C(=O)/C=C/c1ccc(O)cc1 [XANTHOHUMOL] | –

— ChEMBL document CHEMBL3632590, “Development of Safe and Effective Botanical Dietary Supplements” (J Med Chem, 2015)
